From PMC6321136, “Combined In Vitro Studies and in Silico Target Fishing for the Evaluation of the Biological Activities of Diphylleia cymosa and Podophyllum hexandrum” (Molecules, 2018)
Like-named read-outs stand apart in the source and are kept apart here.

Experiments:
[1] = test system: Salmonella choleraesuis subs. choleraesuis sorotype Typhi BM/Panama-TY2; test: Antibacterial microdilution assay; format: cell-based
[2] = target: T1, AChE from Electropardus electricous type VI-S (Electrophorus electricus, UniProt O42275); test: AChE inhibition microplate assay (Ellman); format: biochemical; details: 400 μg/mL; read-out: Inhibition of AChE Microplate (%I)
T1 construct: purchased Sigma-Aldrich, St. Louis, MO, USA type VI-S (catalogue number not given)
Protocol: AChE inhibition assay was performed on a 96-well microplate according to Ellman’s method with adaptations. Initially, the extracts were solubilized on MeOH, at 20 mg/mL, and diluted to 4 mg/mL using Tris/HCl buffer solution (50 mM, pH 8.0). A portion of 25 µL of the samples (4 mg/mL) were added to the wells of the microplate, as well as 50 μL of 0.1% BSA solution in Tris/HCl Buffe (pH 8.0), 125 μL of DTNB in Tris/HCl (3 mM) containing NaCl (10 mM) and MgCl2 (20 mM). Subsequently, 25 μL of the ATCI aqueous solution (15 mM) was added to all wells. Then, a background reading was performed at 405 nm using microplate reader (Multiskan Go, Thermo Scientific, Whaltham, MA, USA). The enzymatic reaction was initiated after the addition of 25 µL of AChE solution (AChE from Electropardus electricous type VI-S, 0.2 U/mL, Sigma-Aldrich, St. Louis, MO, USA) in Tris/HCl buffer (50 mM, pH 8.0) containing 0.1% BSA. The kinetic cycle was performed in a period of 25 min, with readings at 5 min intervals, at 405 nm. Physostigmine (Eserine, Sigma, St. Louis, MO, USA) was employed as the positive control. […] The assay was performed in triplicate and the % of inhibition (%I) was calculated according to the following equation: %I = [(a − b)/a] × 100, where a = ΔA/min of control; b = ΔA/min of test sample; ΔA = change in absorbance between time x and time zero. […]

[3] = parameters: method as in Dar et al. [63]; details: ref Dar et al. [63]; cited from earlier work
[4] = test system: Activators, heat shock response; parameters: method as in PubChem Bioassay AID 743228; details: ref PubChem Bioassay AID 743228; cited from earlier work
[5] = test system: Agonist, androgen receptor (AR); parameters: method as in PubChem Bioassay AID 743040; details: ref PubChem Bioassay AID 743040; cited from earlier work
[6] = test system: Agonist, constitutive androstane receptor (CAR); parameters: method as in PubChem Bioassay AID 1224839; details: ref PubChem Bioassay AID 1224839; cited from earlier work
[7] = test system: Agonist, glucocorticoid receptor (GR); parameters: method as in PubChem Bioassay AID 720691; details: ref PubChem Bioassay AID 720691; cited from earlier work
Angiogenesis model = test system: Angiogenesis model; parameters: method as in PubChem Bioassay AID 1117337; details: ref PubChem Bioassay AID 1117337; cited from earlier work
[8] = test system: Antagonist, NFkB Signaling Pathway; parameters: method as in PubChem Bioassay AID 624479; details: ref PubChem Bioassay AID 624479; cited from earlier work
[9] = test system: Antagonist, thyroid receptor (TR); parameters: method as in PubChem Bioassay AID 743065; details: ref PubChem Bioassay AID 743065; cited from earlier work
Anticancer, colon = test system: Anticancer, colon; parameters: method as in PubChem Bioassay AID 1834; details: ref PubChem Bioassay AID 1834; cited from earlier work
Anticancer, Leukemia = test system: Anticancer, Leukemia; parameters: method as in PubChem Bioassay AID 328; details: ref PubChem Bioassay AID 328; cited from earlier work
Anticancer, Melanoma = test system: Anticancer, Melanoma; parameters: method as in PubChem Bioassay AID 192; details: ref PubChem Bioassay AID 192; cited from earlier work
[10] = test system: Anticancer, non-Hodgkin lymphoma; parameters: method as in PubChem Bioassay AID 651558; details: ref PubChem Bioassay AID 651558; cited from earlier work
[11] = test system: Anticancer, non-Hodgkin lymphoma; parameters: method as in PubChem Bioassay AID 651568; details: ref PubChem Bioassay AID 651568; cited from earlier work
Anti-Inflammatory model = test system: Anti-Inflammatory model; parameters: method as in PubChem Bioassay AID 1267; details: ref PubChem Bioassay AID 1267; cited from earlier work
[12] = test system: Cell Cycle Modulation (counterscreen); parameters: method as in PubChem Bioassay AID 1117350; details: ref PubChem Bioassay AID 1117350; cited from earlier work
Cytotoxicity = test system: Cytotoxicity; parameters: method as in PubChem Bioassay AID 624476; details: ref PubChem Bioassay AID 624476; cited from earlier work
[13] = test system: Cytotoxicity, Agonist, antioxidant response element (ARE); parameters: method as in PubChem Bioassay AID 743203; details: ref PubChem Bioassay AID 743203; cited from earlier work
[14] = test system: Cytotoxicity, Agonist, endoplasmic reticulum stress response; parameters: method as in PubChem Bioassay AID 1159517; details: ref PubChem Bioassay AID 1159517; cited from earlier work
[15] = test system: Cytotoxicity, Agonist, Histone H2A.x; parameters: method as in PubChem Bioassay AID 1224847; details: ref PubChem Bioassay AID 1224847; cited from earlier work
[16] = test system: Cytotoxicity, Agonist, peroxisome proliferator-activated receptor delta (PPARd); parameters: method as in PubChem Bioassay AID 743211; details: ref PubChem Bioassay AID 743211; cited from earlier work

T1 sequence (O42275 24-633): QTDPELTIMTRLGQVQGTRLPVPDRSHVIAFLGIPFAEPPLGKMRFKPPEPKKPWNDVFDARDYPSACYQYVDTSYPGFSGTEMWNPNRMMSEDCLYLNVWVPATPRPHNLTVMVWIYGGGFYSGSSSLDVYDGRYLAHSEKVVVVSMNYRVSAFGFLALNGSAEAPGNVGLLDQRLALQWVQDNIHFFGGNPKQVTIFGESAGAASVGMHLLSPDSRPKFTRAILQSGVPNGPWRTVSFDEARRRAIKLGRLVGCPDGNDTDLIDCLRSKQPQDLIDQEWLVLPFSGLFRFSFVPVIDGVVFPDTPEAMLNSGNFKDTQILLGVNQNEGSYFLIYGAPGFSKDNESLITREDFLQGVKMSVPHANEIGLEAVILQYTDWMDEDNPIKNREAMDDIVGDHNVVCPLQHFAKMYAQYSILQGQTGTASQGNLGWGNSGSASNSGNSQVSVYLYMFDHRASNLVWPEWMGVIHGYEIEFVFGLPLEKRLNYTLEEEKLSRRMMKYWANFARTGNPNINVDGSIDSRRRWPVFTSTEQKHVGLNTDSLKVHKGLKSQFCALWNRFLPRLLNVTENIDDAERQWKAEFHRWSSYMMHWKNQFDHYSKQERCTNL

COc1cc([C@@H]2c3cc4c(cc3[C@H](O)[C@H]3COC(=O)[C@H]23)OCO4)cc(OC)c1OC [Podophyllotoxin, podophyllotoxin]
Salmonella Typhi Mean ± SD (percentage of inhibition of microbial growth) ([1]; 250 µg/mL): No antibacterial activity
inhibition at 250 µg/mL ([1]; Salmonella enterica, read-out: Salmonella Typhi Mean ± SD (percentage of inhibition of microbial growth)): 31.6 ± 7.54%
inhibition at 400 µg/mL [2]: 32.7 ± 5.38%
IC50 DPPH sequestration [3]: higher than 250 μg/mL
Exper. Activity [4]: Inactive
Exper. Activity [5]: Inactive
Exper. Activity [6]: Inactive
Exper. Activity [7]: Inactive
Exper. Activity (Angiogenesis model): Active
Exper. Activity [8]: Inactive
Exper. Activity [9]: Active
Exper. Activity (Anticancer, colon): Active
Exper. Activity (Anticancer, Leukemia): Active
Exper. Activity (Anticancer, Melanoma): Inactive
Exper. Activity [10]: Active
Exper. Activity [11]: Inactive
Exper. Activity (Anti-Inflammatory model): Inactive
Exper. Activity [12]: Active
Exper. Activity (Cytotoxicity): Inactive
Exper. Activity [13]: Inactive
Exper. Activity [14]: Inactive
Exper. Activity [15]: Inactive
Exper. Activity [16]: Inactive
